Measured values taken from patent US5591741A, “Fungicidal spiroheterocyclic derivatives” (American Cyanamid Company, priority 1993, dated 1997).

How the values were obtained:
Plasmopara viticola = assay: Antisporulant activity against vine downy mildew (PVA); format: in vivo; conditions: vine leaves, antisporulant foliar spray, 600 ppm, 750 l/ha
Outline: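 Cabernet Sauvignon vines (~8 cm) inoculated on lower leaf surfaces with 5×10^4 zoosporangia/ml, held 24 h at 21° C high humidity then 24 h glasshouse. Infected leaves sprayed underside with 600 ppm compound in 1:1 water/acetone, 0.04% Tween 20, 750 l/ha; 96 h glasshouse, 24 h humidity. Sporulating leaf area rated versus control.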

Alternaria solani = assay: Activity against tomato early blight (AS); format: in vivo; conditions: Table VI; tomato seedlings, contact prophylactic foliar spray, 4 days
Outline: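 Foliar contact prophylactic spray on tomato seedlings (cv Outdoor Girl, second true leaf expanded) in acetone/water 50:50 with 0.04% Tween 20; 24 h at 20° C, 40% R.H., then inoculation with 10^4 spores/ml A. solani conidia. Kept moist at 21° C; lesion cover rated 4 days post-inoculation against untreated or diluent-sprayed controls.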

Botrytis cinerea = assay: Direct protectant activity against broad bean grey mould (BCB); format: in vivo; conditions: direct protectant foliar spray, 600 ppm, 4 days
Outline: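 Broad bean plants (cv The Sutton, two leaf pairs) sprayed on upper leaf surfaces at 600 ppm, then inoculated 24 h later with 10^6 conidia/ml. Kept 4 days at 22 °C, high humidity; disease control rated from % leaf area with lesions against untreated or diluent controls.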

Leptosphaeria nodorum = assay: Activity against wheat leafspot (LN); format: in vivo; conditions: direct therapeutic foliar spray, 600 ppm, 6-8 days
Outline: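 Wheat cv Norman at single-leaf stage spray-inoculated with 1.5×10^6 conidia/ml, held 24 h at high humidity, then sprayed therapeutically with test compound at 600 ppm. Kept 6-8 days at 22° C, 70% humidity; lesion density per leaf rated against untreated or diluent-sprayed controls.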

[1] = tested on: Erysiphe graminis f.sp. hordei; assay: Activity against barley powdery mildew, direct therapeutic (EGT); format: in vivo; conditions: direct therapeutic foliar spray, 600 ppm, up to 7 days
Outline: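 Barley seedlings (cv. Golden Promise, single-leaf stage) were dusted with mildew conidia one day before a therapeutic foliar spray of 600 ppm compound. Plants were kept at 18 °C and 40% humidity for up to 7 days, and sporulating leaf area was rated against untreated or diluent-sprayed controls.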

[2] = tested on: Erysiphe graminis f.sp. hordei; assay: Direct protectant activity against barley powdery mildew (EGP); format: in vivo; conditions: direct protectant foliar spray, 8 days
Outline: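 Barley seedlings (cv Golden Promise, single-leaf stage) were foliar-sprayed, held 24 h at 18 °C/40% RH, then dusted with mildew conidia. After 8 days at 18 °C/40% RH, sporulating leaf area was scored as a rating against untreated or diluent-sprayed controls.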

Phytophthora infestans = format: in vivo; conditions: tomato, direct protectant foliar spray
[3] = tested on: Pseudocercosporella herpotrichoides; assay: Activity against wheat eyespot in-vitro (PHI); format: cell-based; conditions: 10 ppm, 10 days, 20° C., mycelial growth
Outline: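 P. herpotrichoides mycelial fragments (5×10^4/ml) grown in half-strength PDB with compound at 10 ppm final, added from acetone. Incubated 10 days at 20 °C; mycelial growth rated against untreated or diluent controls.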

Rhizoctonia solani = assay: Activity against Rhizoctonia in-vitro (RSI); format: cell-based; conditions: 10 ppm, 10 days, 20° C., mycelial growth
Outline: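 R. solani mycelial fragments (5×10^4/ml) in half-strength Potato Dextrose Broth with compound added from acetone to 10 ppm final. Mycelial growth assessed after 10 days at 20° C, rated against untreated or diluent control.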

Venturia inaequalis = assay: Activity against apple scab in-vitro (VII); format: cell-based; conditions: 10 ppm, 10 days, 20° C., mycelial growth
Outline: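 Compound in acetone was tested at 10 ppm final in half-strength Potato Dextrose Broth inoculated with V. inaequalis mycelial fragments and spores at 5×10^4 propagules/ml. After 10 days at 20° C, mycelial growth was rated against untreated or diluent controls.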

Pyricularia oryzae = format: in vivo; conditions: rice seedlings, direct therapeutic foliar spray, 600 ppm, 4-5 days

SMILES	disease control rating PVA (Plasmopara viticola)	disease control rating AS (Alternaria solani)	disease control rating BCB (Botrytis cinerea)	disease control rating LN (Leptosphaeria nodorum)	disease control rating EGT [1]	disease control rating EGP [2]	disease control rating PIP (Phytophthora infestans)	disease control rating PHI [3]	disease control rating RSI (Rhizoctonia solani)	disease control rating VII (Venturia inaequalis)	disease control rating PO (Pyricularia oryzae)
CCCCCCCCCCCCCCCCCCNC1COC2(CCC(C(C)(C)C)CC2)C1 (stereo not shown) [Compound 46]	0 (less than 50% disease control)	0 (less than 50% disease control)	0 (less than 50% disease control)	0 (less than 50% disease control)	2 (greater than 80% disease control)	2 (greater than 80% disease control)	0 (less than 50% disease control)	0 (less than 50% disease control)	0 (less than 50% disease control)	0 (less than 50% disease control)	0 (less than 50% disease control)
CC(C)(C)C1CCC2(CC1)CC(NCc1cccnc1)CO2 (stereo not shown) [Compound 47]	0 (less than 50% disease control)	2 (greater than 80% disease control)	0 (less than 50% disease control)	0 (less than 50% disease control)	2 (greater than 80% disease control)	2 (greater than 80% disease control)	0 (less than 50% disease control)	0 (less than 50% disease control)	0 (less than 50% disease control)	1 (about 50-80% disease control)	0 (less than 50% disease control)
CCCCN(Cc1cccnc1)C1COC2(CCC(C(C)(C)C)CC2)C1 (stereo not shown) [Compound 48]	0 (less than 50% disease control)	2 (greater than 80% disease control)	0 (less than 50% disease control)	0 (less than 50% disease control)	2 (greater than 80% disease control)	2 (greater than 80% disease control)	0 (less than 50% disease control)	0 (less than 50% disease control)	0 (less than 50% disease control)	1 (about 50-80% disease control)	0 (less than 50% disease control)
CCCCCNC1COC2(CCC(C(C)(C)CC)CC2)C1 (stereo not shown) [Compound 49]	0 (less than 50% disease control)	0 (less than 50% disease control)	0 (less than 50% disease control)	2 (greater than 80% disease control)	2 (greater than 80% disease control)	2 (greater than 80% disease control)	2 (greater than 80% disease control)	2 (greater than 80% disease control)	1 (about 50-80% disease control)	1 (about 50-80% disease control)	0 (less than 50% disease control)
CCCCCN(CCCCC)C1COC2(CCC(C(C)(C)CC)CC2)C1 (stereo not shown) [Compound 50]	0 (less than 50% disease control)	0 (less than 50% disease control)	0 (less than 50% disease control)	0 (less than 50% disease control)	2 (greater than 80% disease control)	2 (greater than 80% disease control)	0 (less than 50% disease control)	0 (less than 50% disease control)	0 (less than 50% disease control)	1 (about 50-80% disease control)	0 (less than 50% disease control)
